Here are results for eight compounds from ChEMBL document CHEMBL3414440, “Pure enantiomers of benzoylamino-tranylcypromine: LSD1 inhibition, gene modulation in human leukemia cells and effects on clonogenic potential of murine promyelocytic blasts” (Eur J Med Chem, 2015).

The structures appear in SMILES notation.

One data set is described as follows: cells. The conditions noted are these: Mus musculus, Leukemia cell, read-out: INH.
Data set [1] concerns the target T1, Amine oxidase [flavin-containing] B (Homo sapiens, UniProt P27338).
T1 sequence (P27338 whole entry): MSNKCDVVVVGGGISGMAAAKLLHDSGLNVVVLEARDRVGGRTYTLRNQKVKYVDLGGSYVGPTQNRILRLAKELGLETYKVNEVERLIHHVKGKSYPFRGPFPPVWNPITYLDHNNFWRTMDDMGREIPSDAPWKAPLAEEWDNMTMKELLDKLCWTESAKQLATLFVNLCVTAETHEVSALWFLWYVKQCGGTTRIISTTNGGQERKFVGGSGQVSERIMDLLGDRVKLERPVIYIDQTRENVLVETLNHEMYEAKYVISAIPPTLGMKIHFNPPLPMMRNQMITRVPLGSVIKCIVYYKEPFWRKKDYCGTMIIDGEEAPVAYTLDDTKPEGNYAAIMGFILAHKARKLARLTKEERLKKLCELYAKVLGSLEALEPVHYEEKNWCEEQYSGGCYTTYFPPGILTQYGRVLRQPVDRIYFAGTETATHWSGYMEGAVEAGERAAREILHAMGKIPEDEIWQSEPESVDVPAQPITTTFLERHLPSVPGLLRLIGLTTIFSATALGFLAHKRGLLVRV
Description: Inhibition of human recombinant MAOB expressed in Pichia pastoris incubated for 15 mins prior to substrate addition measured after 30 mins by luminescence assay

Data set [2] concerns the target T2, Amine oxidase [flavin-containing] A (Homo sapiens, UniProt P21397).
T2 sequence (P21397 whole entry): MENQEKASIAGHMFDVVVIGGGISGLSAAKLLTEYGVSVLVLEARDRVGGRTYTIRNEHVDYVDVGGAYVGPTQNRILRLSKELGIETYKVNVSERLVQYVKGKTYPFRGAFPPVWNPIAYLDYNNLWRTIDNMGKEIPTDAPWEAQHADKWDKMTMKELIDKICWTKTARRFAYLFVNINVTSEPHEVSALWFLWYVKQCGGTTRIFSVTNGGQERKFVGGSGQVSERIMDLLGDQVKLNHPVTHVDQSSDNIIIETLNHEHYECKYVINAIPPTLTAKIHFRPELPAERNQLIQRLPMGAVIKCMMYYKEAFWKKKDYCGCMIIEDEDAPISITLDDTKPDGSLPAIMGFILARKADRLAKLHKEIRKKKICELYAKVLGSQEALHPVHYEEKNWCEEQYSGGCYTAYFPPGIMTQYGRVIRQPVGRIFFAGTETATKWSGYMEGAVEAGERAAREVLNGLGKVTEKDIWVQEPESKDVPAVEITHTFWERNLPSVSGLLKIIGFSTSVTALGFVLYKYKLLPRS
Description: Inhibition of human recombinant MAOA expressed in Pichia pastoris incubated for 15 mins prior to substrate addition measured after 30 mins by luminescence assay

Data set [3] addresses T3, MAO-B (amine oxidase [flavin-containing] B) (Homo sapiens, UniProt P27338).
T3 sequence (P27338 whole entry): T1 sequence (P27338 whole entry)
The data set can be described thus: Inhibition of human recombinant MAOB expressed in Pichia pastoris at 100 uM incubated for 15 mins prior to substrate addition measured after 30 mins by luminescence assay.

Description for cells: Inhibition of colony formation in mouse acute myeloid Leukemia cell assessed as colony forming unit at 0.25 uM after 7 days relative to control

As for `N[C@H]1C[C@H]1c1ccc(NC(=O)c2ccccc2)cc1`, the inhibition at […] in “cells” amounted to 83.8%.

What is called IC50 is the concentration that gives 50% inhibition. A lower IC50 goes with greater potency. Regarding `N[C@H]1C[C@H]1c1cccc(NC(=O)c2ccccc2)c1`, the half-inhibitory concentration (IC50) was 80100 nM in data set [1] and 70 nM in data set [2].

Consider `N[C@@H]1C[C@@H]1c1cccc(NC(=O)c2ccccc2)c1`, for which, in data set [3], the inhibition at 0.5 h, 100 µM was determined as 34%. In addition, in data set [2], the IC50 was 650 nM.

Turning to `N[C@@H]1C[C@H]1c1ccc(NC(=O)c2ccccc2)cc1`, the inhibition at […] in the data set “cells” amounted to 83.4%.

For `N[C@@H]1C[C@@H]1c1ccc(NC(=O)c2ccccc2)cc1`, in “cells”, the inhibition at […] is 72%.

`N[C@H]1C[C@@H]1c1ccc(NC(=O)c2ccccc2)cc1`: the inhibition at […] in “cells” was found to be 64%.

Turning to `N[C@@H]1C[C@H]1c1cccc(NC(=O)c2ccccc2)c1`, the IC50 worked out at 84700 nM in data set [1] and 1540 nM in data set [2].

Consider `N[C@H]1C[C@@H]1c1cccc(NC(=O)c2ccccc2)c1`, for which the inhibition at 0.5 h, 100 µM in data set [3] was 29%. This compound also displayed an IC50 in data set [2] of 1370 nM.
